Holding throughout (assay): TGFα-shedding assay-based GPCR screening with chimeric Gα subunit proteins
What all share (type): cell-based

Experiment [1] addresses T1, 348 GPCRs (Homo sapiens, UniProt Q8TDT2).
T1 construct: expressed in transfected cells; host or cells: HEK293A
The conditions noted are these: 10µM, Favipiravir 100μM.

The target of experiment [2] is T2, 348 GPCRs (Homo sapiens, UniProt Q9GZN0).
T2 construct: expressed in transfected cells; host or cells: HEK293A
To be noted: 10µM, Favipiravir 100μM.

In experiment [3] the target is T3, 348 GPCRs (Homo sapiens, UniProt P41586).
T3 construct: expressed in transfected cells; host or cells: HEK293A
T3 sequence (P41586 21-468): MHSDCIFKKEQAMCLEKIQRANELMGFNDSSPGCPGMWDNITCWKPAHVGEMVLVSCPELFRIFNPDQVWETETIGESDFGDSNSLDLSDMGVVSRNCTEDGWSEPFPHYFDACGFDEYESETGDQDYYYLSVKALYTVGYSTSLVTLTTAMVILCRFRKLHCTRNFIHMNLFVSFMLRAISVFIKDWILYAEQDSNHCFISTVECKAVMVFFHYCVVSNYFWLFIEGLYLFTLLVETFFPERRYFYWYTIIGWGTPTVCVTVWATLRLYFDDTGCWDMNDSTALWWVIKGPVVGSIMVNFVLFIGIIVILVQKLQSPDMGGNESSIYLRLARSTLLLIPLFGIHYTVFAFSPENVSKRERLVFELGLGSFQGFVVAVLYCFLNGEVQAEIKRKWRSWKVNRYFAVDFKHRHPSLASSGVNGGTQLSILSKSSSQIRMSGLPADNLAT
The conditions noted are these: 10µM, Favipiravir 100μM.

Experiment [4] has as its target T4, 348 GPCRs (Homo sapiens, UniProt Q9Y271).
T4 construct: expressed in transfected cells; host or cells: HEK293A
T4 sequence (Q9Y271 1-337): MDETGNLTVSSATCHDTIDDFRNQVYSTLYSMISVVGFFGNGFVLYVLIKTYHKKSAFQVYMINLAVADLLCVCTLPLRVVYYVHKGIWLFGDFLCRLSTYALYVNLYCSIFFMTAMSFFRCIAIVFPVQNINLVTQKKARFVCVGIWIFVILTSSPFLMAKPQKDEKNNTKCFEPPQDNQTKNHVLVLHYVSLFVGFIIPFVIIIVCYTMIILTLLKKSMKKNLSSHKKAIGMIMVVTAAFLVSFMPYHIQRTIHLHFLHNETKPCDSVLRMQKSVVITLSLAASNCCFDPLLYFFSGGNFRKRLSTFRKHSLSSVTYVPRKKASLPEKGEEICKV

The target of experiment [5] is T5, 348 GPCRs (Homo sapiens, UniProt P34995).
T5 construct: expressed in transfected cells; host or cells: HEK293A
T5 sequence (P34995 1-402): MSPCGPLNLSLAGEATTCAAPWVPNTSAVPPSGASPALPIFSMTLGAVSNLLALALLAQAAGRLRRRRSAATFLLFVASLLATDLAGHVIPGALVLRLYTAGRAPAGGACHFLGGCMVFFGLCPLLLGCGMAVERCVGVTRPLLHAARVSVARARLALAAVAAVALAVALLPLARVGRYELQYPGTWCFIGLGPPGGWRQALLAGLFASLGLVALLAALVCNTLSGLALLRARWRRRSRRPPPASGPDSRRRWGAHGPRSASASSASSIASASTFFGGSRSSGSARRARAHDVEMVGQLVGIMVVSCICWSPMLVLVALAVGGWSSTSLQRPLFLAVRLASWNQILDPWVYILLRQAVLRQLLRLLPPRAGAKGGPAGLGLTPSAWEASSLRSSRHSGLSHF
The conditions noted are these: 10µM, Favipiravir 100μM.

For experiment [6], the target named is T6, 348 GPCRs (Homo sapiens, UniProt P25116).
T6 construct: expressed in transfected cells; host or cells: HEK293A
T6 sequence (P25116 22-425): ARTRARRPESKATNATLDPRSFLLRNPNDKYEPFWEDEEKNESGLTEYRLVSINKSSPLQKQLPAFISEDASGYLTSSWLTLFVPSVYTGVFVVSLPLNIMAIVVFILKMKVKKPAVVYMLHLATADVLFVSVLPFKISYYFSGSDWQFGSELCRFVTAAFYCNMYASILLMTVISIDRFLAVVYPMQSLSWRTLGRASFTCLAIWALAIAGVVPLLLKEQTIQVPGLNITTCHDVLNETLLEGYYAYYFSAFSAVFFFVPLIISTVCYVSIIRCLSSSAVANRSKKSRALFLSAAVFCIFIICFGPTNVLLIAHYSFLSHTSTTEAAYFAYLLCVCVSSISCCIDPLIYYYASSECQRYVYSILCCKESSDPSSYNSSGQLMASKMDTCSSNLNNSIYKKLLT
To be noted: 10µM, Favipiravir 100μM.

Experiment [7] addresses T7, 348 GPCRs (Homo sapiens, UniProt P46663).
T7 construct: expressed in transfected cells; host or cells: HEK293A
T7 sequence (P46663 1-353): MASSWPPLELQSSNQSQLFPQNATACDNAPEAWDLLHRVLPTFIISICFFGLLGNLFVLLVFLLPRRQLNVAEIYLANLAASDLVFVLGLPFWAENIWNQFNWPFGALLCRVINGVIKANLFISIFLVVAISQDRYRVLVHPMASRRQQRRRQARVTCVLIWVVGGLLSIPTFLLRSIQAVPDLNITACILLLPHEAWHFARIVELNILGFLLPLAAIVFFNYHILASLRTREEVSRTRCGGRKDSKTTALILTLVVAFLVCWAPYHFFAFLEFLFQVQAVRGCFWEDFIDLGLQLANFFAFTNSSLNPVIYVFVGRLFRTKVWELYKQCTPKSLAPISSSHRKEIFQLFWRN
To be noted: 10µM, Favipiravir 100μM.

The target of experiment [8] is T8, 348 GPCRs (Homo sapiens, UniProt Q9NYW7).
T8 construct: expressed in transfected cells; host or cells: HEK293A
T8 sequence (Q9NYW7 1-299): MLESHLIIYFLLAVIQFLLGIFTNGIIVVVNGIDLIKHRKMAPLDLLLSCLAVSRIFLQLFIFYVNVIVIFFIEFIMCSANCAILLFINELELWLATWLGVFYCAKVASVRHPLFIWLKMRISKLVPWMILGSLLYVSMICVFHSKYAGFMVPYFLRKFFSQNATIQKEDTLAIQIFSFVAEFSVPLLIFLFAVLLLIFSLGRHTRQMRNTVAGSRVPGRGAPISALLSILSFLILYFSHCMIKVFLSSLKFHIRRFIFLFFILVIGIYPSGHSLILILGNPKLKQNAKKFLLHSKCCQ
The conditions noted are these: 10µM, Favipiravir 100μM.

Where [9] appears, read: GPR152 (G Protein-Coupled Receptor 152), read-out: % GPCR activation compared to TPA.
Setting [10] is: GPR88 (G Protein-Coupled Receptor 88), read-out: % GPCR activation compared to TPA.
Setting [11] is: ADCYAP1 (ADCYAP receptor type I), read-out: % GPCR activation compared to TPA.
[12] abbreviates: EP1 (prostaglandin E receptor 1), read-out: % GPCR activation compared to TPA.
The mark [13] stands for this setting: F2R (coagulation factor II (thrombin) receptor), read-out: % GPCR activation compared to TPA.
Setting [14] is: B1 (bradykinin receptor B1), read-out: % GPCR activation compared to TPA.
Where [15] appears, read: TAS2R1 (taste receptor, type 2, member 1), read-out: % GPCR activation compared to TPA.
The mark [16] stands for this setting: read-out: % GPCR activation compared to TPA, GPR152 (G Protein-Coupled Receptor 152).
Setting [17] is: read-out: % GPCR activation compared to TPA, GPR88 (G Protein-Coupled Receptor 88).
Setting [18] is: read-out: % GPCR activation compared to TPA, ADCYAP1 (ADCYAP receptor type I).
The mark [19] stands for this setting: read-out: % GPCR activation compared to TPA, GPCR CysLT1 (cysteinyl leukotriene receptor 1).
The mark [20] stands for this setting: read-out: % GPCR activation compared to TPA, EP1 (prostaglandin E receptor 1).
The mark [21] stands for this setting: read-out: % GPCR activation compared to TPA, F2R (coagulation factor II (thrombin) receptor).
Where [22] appears, read: read-out: % GPCR activation compared to TPA, B1 (bradykinin receptor B1).
Where [23] appears, read: read-out: % GPCR activation compared to TPA, TAS2R1 (taste receptor, type 2, member 1).
[24] abbreviates: GPCR CysLT1 (cysteinyl leukotriene receptor 1), read-out: % GPCR activation compared to TPA.

Like-named read-outs stand apart in the source and are kept apart here.

T2 sequence (Q9GZN0 whole entry): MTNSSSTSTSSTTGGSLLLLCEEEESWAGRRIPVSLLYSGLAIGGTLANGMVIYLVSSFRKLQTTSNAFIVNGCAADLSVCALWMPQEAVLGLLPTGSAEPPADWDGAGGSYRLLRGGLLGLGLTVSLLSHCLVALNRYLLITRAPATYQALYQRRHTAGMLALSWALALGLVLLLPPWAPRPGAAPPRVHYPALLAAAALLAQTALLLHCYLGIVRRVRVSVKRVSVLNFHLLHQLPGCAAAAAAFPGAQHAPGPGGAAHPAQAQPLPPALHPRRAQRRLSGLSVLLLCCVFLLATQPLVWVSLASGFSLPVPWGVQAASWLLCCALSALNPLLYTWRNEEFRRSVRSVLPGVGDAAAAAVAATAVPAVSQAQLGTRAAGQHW
T1 sequence (Q8TDT2 whole entry): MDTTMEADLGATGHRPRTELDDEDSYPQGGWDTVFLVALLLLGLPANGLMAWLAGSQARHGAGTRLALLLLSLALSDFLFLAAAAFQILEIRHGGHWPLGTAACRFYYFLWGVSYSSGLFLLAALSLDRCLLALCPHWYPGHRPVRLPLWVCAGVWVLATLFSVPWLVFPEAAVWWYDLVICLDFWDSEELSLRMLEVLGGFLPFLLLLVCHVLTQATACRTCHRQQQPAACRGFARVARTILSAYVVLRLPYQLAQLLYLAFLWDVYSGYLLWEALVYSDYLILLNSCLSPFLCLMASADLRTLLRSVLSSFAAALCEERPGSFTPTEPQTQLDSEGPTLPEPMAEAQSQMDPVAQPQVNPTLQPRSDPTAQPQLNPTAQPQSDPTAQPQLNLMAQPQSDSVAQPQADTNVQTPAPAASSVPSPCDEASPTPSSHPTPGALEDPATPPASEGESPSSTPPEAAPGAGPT

Consider `NC(=O)c1nc(F)cnc1O` [favipiravir, 6-fluoro-3-hydroxy-2-pyrazinecarboxamide], for which the activation at 10 µM is -0.401% at 348 GPCRs [1] (setting [9]), -2.55% on 348 GPCRs [6] (setting [13]) and 5.17% at 348 GPCRs [7] (setting [14]). Moreover, the activation at 100 µM at 348 GPCRs [2] (setting [10]) is -1.1%; on 348 GPCRs [3] (setting [11]), -0.29%; on 348 GPCRs [4] (GPCR CysLT1 (cysteinyl leukotriene receptor 1), 100μM, read-out: % GPCR activation compared to TPA), -0.478%; on 348 GPCRs [5] (setting [12]), -1.04%; at 348 GPCRs [8] (setting [15]), -0.27%.

Regarding `CC(C)OC(=O)[C@H](C)N[P@](=O)(OC[C@H]1O[C@@H](n2ccc(=O)[nH]c2=O)[C@](C)(F)[C@@H]1O)Oc1ccccc1` [sofosbuvir], the activation at 10 µM was 1.86% at 348 GPCRs [1] (setting [16]), -1.58% at 348 GPCRs [4] (setting [19]), -1.12% on 348 GPCRs [6] (setting [21]) and -5% on 348 GPCRs [7] (setting [22]). Moreover, the activation at 100 µM at 348 GPCRs [2] (setting [17]) is -0.818%; on 348 GPCRs [3] (setting [18]) it was -0.225%; at 348 GPCRs [5] (setting [20]) it was -0.685%; on 348 GPCRs [8] (setting [23]) it was -0.974%.

For the compound `CCC(CC)COC(=O)[C@H](C)N[P@](=O)(OC[C@H]1O[C@@](C#N)(c2ccc3c(N)ncnn23)[C@H](O)[C@@H]1O)Oc1ccccc1` [remdesivir], the activation at 10 µM at 348 GPCRs [1] (setting [16]) was -0.751%; on 348 GPCRs [4] (setting [19]), 0.442%; at 348 GPCRs [6] (setting [21]), -1.45%; on 348 GPCRs [7] (setting [22]), 8.43%. Further, the activation at 100 µM was -0.608% on 348 GPCRs [2] (setting [17]), 2.11% on 348 GPCRs [3] (setting [18]), 0.488% on 348 GPCRs [5] (setting [20]) and 0.931% on 348 GPCRs [8] (setting [23]).

On to `N#C[C@@]1(c2ccc3c(N)ncnn23)O[C@H](CO)[C@@H](O)[C@H]1O` [GS441524], for which the activation at 10 µM on 348 GPCRs [1] (setting [9]) is -0.232%; on 348 GPCRs [4] (setting [24]), -1.14%; at 348 GPCRs [6] (setting [13]), -1.57%; at 348 GPCRs [7] (setting [14]), 1.31%. The activation at 100 µM was -2.34% on 348 GPCRs [2] (setting [10]), 3.21% at 348 GPCRs [3] (setting [11]), -1.84% at 348 GPCRs [5] (setting [12]) and -0.408% at 348 GPCRs [8] (setting [15]).

Consider `CC(C)C(=O)OC[C@H]1O[C@@H](n2ccc(NO)nc2=O)[C@H](O)[C@@H]1O` [molnupiravir], for which the activation at 10 µM was -1.29% on 348 GPCRs [1] (setting [9]), -1.72% at 348 GPCRs [4] (setting [24]), -0.992% on 348 GPCRs [6] (setting [13]) and -3.36% at 348 GPCRs [7] (setting [14]). Moreover, the activation at 100 µM is -1.19% at 348 GPCRs [2] (setting [10]), -0.597% at 348 GPCRs [3] (setting [11]), 0.204% on 348 GPCRs [5] (setting [12]) and -0.93% at 348 GPCRs [8] (setting [15]).
